Entries after “also recorded” stand apart in the source; their conditions may differ.
How the values were obtained:
Vero E6 cells = experiment: Cytotoxicity test of drug (CCK-8 kit); format: cell-based; conditions: all test concentrations (0.14-100 μM), 48 hours
EBOV = conditions: intravenous 10 mg/kg per day for consecutive 12 days, treatment started three days after virus exposure; cited from earlier work
[1] = tested on: SARS-CoV-2 (2019-nCoV) virus (nCoV-2019BetaCoV/Wuhan/WIV04/2019 strain); experiment: Reduction of viral nucleic acid load of Vero E6 cells infected by SARS-CoV-2 (qRT-PCR of supernatant); format: cell-based; parameters: Virus genome copy number: unit not given here; conditions: for Virus genome copy number: 48 h, Vero E6, 100TCID50, supernatant

Q: Which “cytotoxicity (toxic effect on the cells)” value (Vero E6 cells) does the source give for `CCC(CC)COC(=O)[C@H](C)N[P@](=O)(OC[C@H]1O[C@@](C#N)(c2ccc3c(N)ncnn23)[C@H](O)[C@@H]1O)Oc1ccccc1` [Remdesivir, 2-ethylbutyl (2S)-2-[[[(2R,3S,4R,5R)-5-(4-aminopyrrolo[2,1-f][1,2,4]triazin-7-yl)-5-cyano-3,4-dihydroxyoxolan-2-yl]methoxy-phenoxyphosphoryl]amino]propanoate] here?
A: no cytotoxicity was observed; also recorded: no toxic effect

Q: What about the “EBOV-infected animals protected from death” value (EBOV) of the same compound?
A: 100%

Q: And the “replication of EBOV” value (EBOV)?
A: significantly inhibit

Q: And the “Virus genome copy number” value ([1]; 0.14 μM)?
A: 6120820311.5

Q: And the “Virus genome copy number” value ([1]; 0.41 μM)?
A: 1751863138.5

Q: And the “Virus genome copy number” value ([1]; 1.23 μM)?
A: 879273650.5

Q: And the “Virus genome copy number” value ([1]; 3.70 μM)?
A: 20287512.5

Q: What about the “Virus genome copy number” value ([1]; 11.11 μM) of the same compound?
A: 16308516.5

Q: And the “Virus genome copy number” value ([1]; 33.33 μM)?
A: 12429732

Q: What about the “Virus genome copy number” value ([1]; 100 μM) of the same compound?
A: 9010444.5

Q: And the “inhibition of the replication of the SARS-CoV-2 virus genome in the infected supernatant” value ([1]; concentrations of 100 μM, 33 μM, 11.1 μM and 3.7 μM)?
A: could effectively inhibit

Q: And the “reduction of the viral nucleic acid load” value ([1]; drug concentration of 33 μM, 48 hours after infection, Vero E6)?
A: an order of magnitude

Q: What about the “viral nucleic acid load in cells infected by SARS-CoV-2” value ([1]; micromolar concentration level) of the same compound?
A: can reduce the viral nucleic acid load
